{"source": "paper PMC12648656", "about": "“Palladium(II) Complexes with Noncovalent Interactions with DNA: Solution Speciation Controlled by Solvent Identity, pH, and Concentration” (Inorganic Chemistry, 2025)", "key": {"[1]": {"tested_on": "Colo 205 human colon cancer cell line", "experiment": "In vitro cytotoxicity, MTT", "type": "cell-based", "conditions": "Colo 205, 72 h exposure", "experimental": "(§1) Cell culture reagents were obtained from Merck, and plasticware was obtained from Sarstedt. Human colon adenocarcinoma cell line Colo 205 (ATCC CCL-222) and MCF7 (ATCC HTB-22) breast cancer cells were purchased from LGC Promochem. Cancer cells were cultured in RPMI 1640 medium supplemented with 10% heat-inactivated fetal bovine serum, 2 mM L-glutamine, and 1 mM sodium pyruvate and buffered with 100 mM HEPES. The cells were incubated at 37 °C in a 5% CO2, 95% air atmosphere and were detached with Trypsin-Versene (EDTA) solution for 5 min at 37 °C.\n(§2) The tested ligands were dissolved in DMSO, and the stock solutions (5 mM) were diluted in complete culture medium. Two-fold serial dilutions of compounds were made in 100 μL of the medium, horizontally. The semiadherent colon adenocarcinoma cells were treated with Trypsin-Versene (EDTA) solution. They were adjusted to a density of 1 × 10^4 cells in 100 μL of RPMI 1640 medium and were added to each well, with the exception of the medium control wells. The final volume of the wells containing compounds and cells was 200 μL. The plates containing the cells were incubated at 37 °C for 72 h; at the end of the incubation period, 20 μL of MTT solution (5 mg/mL) was added to each well. After incubation at 37 °C for 4 h, 100 μL of sodium dodecyl sulfate solution (10% in 0.01 M HCl) was added to each well, and the plates were further incubated at 37 °C overnight. Cell growth was determined by measuring the optical density (OD) at 540 and 630 nm with a Multiskan EX plate reader (Thermo Labsystems).\n(§3) Curves for the data obtained on cancer cells were fitted by GraphPad Prism software using the sigmoidal dose–response model (comparing variable and fixed slopes). The IC50 values were always obtained from at least three independent experiments."}, "[2]": {"tested_on": "MCF7 human breast cancer cell line", "experiment": "In vitro cytotoxicity, MTT", "type": "cell-based", "conditions": "MCF7, 72 h exposure", "experimental": "as §1, §2, §3"}, "[3]": {"tested_on": "Enterococcus faecalis (ATCC 29212)", "experiment": "Antibacterial MIC, broth dilution", "type": "cell-based", "conditions": "E. faecalis, 18 h, 37 °C", "experimental": "(§4) Antibacterial activity was determined for the title compounds in various Gram-negative and Gram-positive bacterial strains, namely Klebsiella pneumoniae, Escherichia coli (ATCC 25922), Staphylococcus aureus (272123), methicillin-resistant Staphylococcus aureus (ATCC 43300), and Enterococcus faecalis (ATCC 29212). The stock solutions of the tested compounds were prepared in DMSO at a 5 mM concentration. […] All stock solutions were diluted in 100 μL of Mueller Hinton Broth, and then two-fold serial dilutions were performed. Then, a 10^–4 dilution of an overnight bacterial culture in 100 μL of medium was added to each well, except for the medium control wells. The highest concentration of the compounds in the tested samples was 100 μM. The plates were incubated at 37 °C for 18 h. After that, the MIC values were determined by visual inspection."}, "[4]": {"tested_on": "Escherichia coli (ATCC 25922)", "experiment": "Antibacterial MIC, broth dilution", "type": "cell-based", "conditions": "E. coli, 18 h, 37 °C", "experimental": "as §4"}, "[5]": {"tested_on": "Klebsiella pneumoniae", "experiment": "Antibacterial MIC, broth dilution", "type": "cell-based", "conditions": "K. pneumoniae, 18 h, 37 °C", "experimental": "as §4"}, "[6]": {"tested_on": "Staphylococcus aureus (272123)", "experiment": "Antibacterial MIC, broth dilution", "type": "cell-based", "conditions": "S. aureus, 18 h, 37 °C", "experimental": "as §4"}, "[7]": {"tested_on": "methicillin-resistant Staphylococcus aureus (ATCC 43300)", "experiment": "microbe, parasite or virus in culture", "type": "cell-based", "conditions": "S. aureus (MRSA), 18 h, 37 °C", "experimental": "as §4"}, "[8]": {"experiment": "Stability in physiological buffers (Tris, phosphate, HEPES) by UV-vis", "type": "physicochemical", "experimental": "The reaction of the metal complexes (2) and (3) with buffer components was followed in an array of DMSO percentages, from 1% to 60% (v/v) DMSO/H2O (pH 7.4) medium. The samples were prepared by dilution of the stock solution of the respective complex in DMSO (5 mM) with 5 mM Tris 1% (v/v) DMSO/H2O or 5 mM phosphate buffers 60% (v/v) DMSO/H2O (pH 7.40 in both cases), reaching a final concentration of 10^–6 to 10^–4 M. The UV–vis spectra of the final samples were followed over time at 37 °C for up to 24 h."}, "[9]": {"tested_on": "glutathione (GSH)", "experiment": "Reaction with glutathione followed by UV-vis", "conditions": "30-fold GSH, ~20 μM complex, 60% (v/v) DMSO/phosphate buffer pH 7.4, 25.0 °C", "experimental": "Reactions between the title compounds and GSH were also followed by UV–vis spectrophotometry under an inert atmosphere to overcome oxidation of GSH by air oxygen. Samples contained the metal complexes at low concentrations (∼20 μM) and were prepared using 60% (v/v) DMSO/phosphate buffer solution (pH 7.4) to avoid precipitation. The reactants were separated in the pockets of a tandem cuvette, followed by deoxygenation by argon bubbling. The separate solutions were mixed at 1:30 metal complex:GSH molar ratios, and UV–vis spectra were recorded. Argon was continuously passed over the sample during the whole measurement."}, "[10]": {"tested_on": "calf thymus-DNA (CT-DNA)", "experiment": "UV-vis titration with CT-DNA", "type": "binding", "conditions": "complex/DNA ratio 0 to 0.79; 5 mM Tris, 50 mM NaCl, pH 7.40, 25 °C", "experimental": "To investigate the potential binding ability of the palladium complexes (2) and (3) with DNA, UV–vis titrations (240 to 700 nm) were performed at room temperature. During the titrations, the CT-DNA concentration (5.08 × 10^–5 M) was kept constant, while the concentration of each complex (0 to 2.00 × 10^–5 M) was varied. The changes in the typical absorbance of CT-DNA at 260 nm were monitored after equilibration (10 min) and after 1 h of incubation at 37 °C. […] Control experiments with DMSO were performed, and no changes in the CT-DNA spectrum were observed."}, "[11]": {"experiment": "Stability under light in DMSO by UV-vis", "type": "physicochemical", "conditions": "first 2.5 h", "from_the_text": "The stability of the stock solutions and the effect of diffuse solar irradiation were monitored in DMSO by UV–visible (UV–vis, see Methods) spectra in the 260 to 860 nm wavelength range, and the path length was 1 cm. The initial sample was divided equally into two portions for the stability studies; one portion was irradiated with diffuse light and followed over time, while the other one was stored, protected from light, and measured 1 day after dissolution."}}}
{"smiles": "Clc1ccc(N=C2N[N+](=Cc3c[nH]cn3)[Pd-2]3([S]C(Nc4ccc(Cl)cc4)=N[N+]3=Cc3c[nH]cn3)[S]2)cc1", "note": "(stereo not drawn) [(2), Bis(1H-imidazole-4-carboxaldehyde-4N-p-chlorophenylthiosemicarbazonato)palladium(II)]", "values": [{"measurement": "IC50", "setting": "[1]", "result": "11.8 ± 0.35", "unit": "µM"}, {"measurement": "IC50", "setting": "[2]", "result": "1550 ± 30", "unit": "nM"}, {"measurement": "MIC", "setting": "[3]", "result": "> 100", "unit": "µM"}, {"measurement": "MIC", "setting": "[4]", "result": "> 100", "unit": "µM"}, {"measurement": "MIC", "setting": "[5]", "result": "> 100", "unit": "µM"}, {"measurement": "MIC", "setting": "[6]", "result": "> 100", "unit": "µM"}, {"measurement": "MIC", "setting": "[7]", "result": "> 100", "unit": "µM"}, {"measurement": "behaviour in HEPES buffer", "setting": "[8]; HEPES, pH 7.4, 0.1 M chloride, 60% DMSO", "result": "formed precipitation"}, {"measurement": "time stable in solution, no precipitation", "setting": "[8]; Tris buffer containing 3% (v/v) DMSO, pH 7.4, 20.0 μM", "result": "up to 24 h"}, {"measurement": "stability after 24 h", "setting": "[8]; Tris buffer, 60% DMSO", "result": "decreased the stability"}, {"measurement": "behaviour in phosphate buffer", "setting": "[8]; pH 7.4, 0.1 M chloride, 3% (v/v) DMSO", "result": "precipitated"}, {"measurement": "behaviour in phosphate buffer", "setting": "[8]; pH 7.4, 0.1 M chloride, 60% (v/v) DMSO, first 10 h", "result": "major structural changes"}, {"measurement": "time to equilibrium of the reaction with GSH", "setting": "[9]", "result": "≤ 30", "unit": "min"}, {"measurement": "change of CT-DNA absorption at 260 nm", "setting": "[10]", "result": "absorption values of DNA–complex samples increase"}, {"measurement": "spectral changes when not protected from light", "setting": "[11]", "result": "only minor changes"}]}
